pIC50: −log10 of the molar value.
Key:
[1] = Kinetic Turbidimetric Aqueous Solubility at room temperature for 5 min; type: physicochemical; conditions: PBS buffer, kinetic from dmso stock, 2% DMSO
Procedure, shortened: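 Compound diluted in PBS across typically 0.4–200 μM (final DMSO 2%), held 5 min at room temperature. Turbidity read as absorbance at 620 nm against vehicle control. Four-parameter sigmoidal fit of normalized absorbances with AUC calculation gives Log S.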

[2] = Metabolic stability against human hepatic S9 fraction; type: in vitro ADME; conditions: pooled human liver S9 fraction; 1 μM compound, 1 mg/mL pooled human liver S9, phase I and II cofactors, 37° C.; read-out: half-life (t1/2) towards human hepatic S9 fraction
Method: For the evaluation of combined phase I and phase II metabolic stability, the compound (1 μM) was incubated with 1 mg/mL pooled human liver S9 fraction (BD Gentest), 2 mM NADPH regenerating system, 1 mM UDPGA, 10 mM MgCl2 and 0.1 mM PAPS at 37° C. for 0, 5, 15, 30 and 60 min. The metabolic stability of Testosterone (1 μM) and 7-hydroxycoumarin (1 μM) were determined in parallel to confirm the enzymatic activity of the S9 fraction. The incubation was stopped by precipitation of S9 enzymes with 2 volumes of cold acetonitrile containing internal standard (750 nM Diphenhydramine). Samples were stored on ice for 10 min and precipitated protein was removed by centrifugation (10 min, 4° C., 17,000 g). Concentration of the remaining test compound at the different time points was analyzed by LC-MS/MS (TSQ Quantum Access MAX, Thermo Fisher, Dreieich, Germany) and used to determine half-life (t/2).

[3] = biological target: PqsR (Pseudomonas aeruginosa, UniProt Q9I4X0); assay: E. coli based β-galactosidase reporter gene assay (PqsR inverse agonistic activity); type: cell-based; set-up: expressed in transfected cells; host or cells: Escherichia coli DH5α
Procedure, shortened: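 E. coli DH5α carrying pEAL08-2 (tac-driven pqsR with pqsA-lacZ) was grown to OD600 0.2 and incubated with 0.001–10 μM compound plus 50 nM PQS for 2.5 h at 37 °C. β-Galactosidase activity was measured by ONPG conversion in permeabilized cells and normalized between the no-PQS and solvent controls. IC50 came from concentration variation.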

[4] = test system: P. aeruginosa pyocyanin production; assay: Pyocyanin assay; type: cell-based, P. aeruginosa PA14; conditions: Pseudomonas aeruginosa, PA14, 16 h, read-out: IC50-value towards pyocyanin production, PA14 in PPGAS medium, 16 h
Procedure, shortened: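 PA14 in PPGAS medium from OD600 0.02 grown 16 h at 37 °C, 200 rpm, with compounds. Pyocyanin extracted with chloroform, back-extracted into 0.2 M HCl, OD520 normalised to OD600.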

[5] = Metabolic stability in mouse liver microsomes (MLM); type: in vitro ADME; conditions: 1 μM compound, 0.5 mg/mL MLM, 1 mM NADPH, 37° C., read-out: half-life (t1/2) towards MLM
Method: For the evaluation of phase I metabolic stability, the compound (1 μM) was incubated with 0.5 mg/mL MLM (Corning) and 1 mM NADPH at 37° C. for 0, 5, 10, 15 and 30 min. The metabolic stability of Verapamil, Diphenhydramine and Benzydamine (1 μM each) were determined in parallel to confirm the enzymatic activity of the MLM. The incubation was stopped by addition of 2 volumes of acetonitrile containing internal standard (1 μM Leucine Enkephaline). Samples were centrifuged (15 min, 3,500 rpm). Concentration of the remaining test compound at the different time points was analyzed by HPLC-MS/MS and used to determine half-life (t1/2).

[6] = test system: HepG2 cells; assay: Cytotoxicity (MTT) toward HepG2; type: cell-based; conditions: Homo sapiens, 48 h, upper class: or at solubility maximum, read-out: IC50-value towards HepG2
Method: To obtain information regarding the toxicity of our compounds, their impact on the viability of human cells was investigated. HepG2 and HEK293 cells (2×10^5 per well) were seeded in 24-well, flat-bottomed culture plates. 24 h after seeding the cells the incubation was started by the addition of compounds in a final DMSO concentration of 1%. The living cell mass was determined 48 h after treatment with compounds by adding 0.1 volumes of 3-(4,5-dimethylthiazol-2-yl)-2,5-diphenyltetrazolium bromide (MTT) solution (5 mg per mL sterile PBS) (Sigma, St. Louis, MO) to the wells. After incubating the cells for 30 min at 37° C. (atmosphere containing 5% CO2), MTT crystals were dissolved in a solution containing 10% SDS and 0.5% acetic acid in DMSO. The optical density (OD) of the samples was determined photometrically at 570 nm in a FLUOstar Omega plate reader (BMG labtech, Ortenberg, Germany). To obtain inhibition values for each sample, their ODs were related to those of DMSO controls.

Chain of PqsR (Q9I4X0 whole entry): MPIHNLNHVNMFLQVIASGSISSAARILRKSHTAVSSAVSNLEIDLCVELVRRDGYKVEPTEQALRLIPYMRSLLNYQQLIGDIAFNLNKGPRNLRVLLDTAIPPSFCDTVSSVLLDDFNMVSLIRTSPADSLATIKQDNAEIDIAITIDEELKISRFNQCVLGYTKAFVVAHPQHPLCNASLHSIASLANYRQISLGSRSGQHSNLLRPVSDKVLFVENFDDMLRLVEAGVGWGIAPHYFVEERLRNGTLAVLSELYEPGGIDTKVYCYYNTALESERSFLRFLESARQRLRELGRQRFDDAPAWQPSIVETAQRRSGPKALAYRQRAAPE

Structure (SMILES) | solubility at 5 min [1] | half-life at 1 μM [2] | pIC50 [3] | pIC50 [4] | half-life at 1 μM [5] | pIC50 [6]
FC(F)(F)c1cc(NCc2nc3ccc(Oc4ccccc4)cc3o2)ccn1 [Compound 134, N-((6-Phenoxybenzo[d]oxazol-2-yl)methyl)-2-(trifluoromethyl)pyridin-4-amine] | ≥ 100 µM | > 60 min | 6.00 to 6.60 |  |  | 
FC(F)(F)c1cc(NCc2cn(-c3ccc(-n4ncc5ccncc54)c(Cl)c3)nn2)ccn1 [Compound 147] | > 50 µM |  | ≥ 7.30 | 6.00 to 6.60 | 31 to 60 min | 
FC(F)(F)c1cc(NCc2csc(-c3ccc(C4CC4)cc3)n2)ccn1 [Compound 081, N-((2-(4-Cyclopropylphenyl)thiazol-4-yl)methyl)-2-(trifluoromethyl)pyridin-4-amine] |  | 41 to 60 min | ≥ 7.30 | ≥ 6.60 |  | 
CC(C)Oc1ccc(-c2ncc(CNc3ccnc(C(F)(F)F)c3)cn2)cc1 [Compound 106, N-((2-(4-isopropoxyphenyl)pyrimidin-5-yl)methyl)-2-(trifluoromethyl)pyridin-4-amine] | > 25 µM |  | 6.60 to 7.29 | 6.00 to 6.60 | > 60 min | 
FC(F)(F)c1cc(SCc2cnc(-c3ccc(Oc4ccccc4)cc3)s2)ccn1 [Compound 066, 2-(4-Phenoxyphenyl)-5-(((2-(trifluoromethyl)pyridin-4-yl)thio)methyl)thiazole] |  | > 60 min | 6.60 to 7.29 | 5.30 to 6.00 |  | 
FC(F)(F)c1cc(SCc2ccc(-c3ccc(Oc4ccccc4)nc3)cn2)ccn1 [Compound 114, 6-Phenoxy-6′-(((2-(trifluoromethyl)pyridin-4-yl)thio)methyl)-3,3′-bipyridine] |  | > 60 min | 6.60 to 7.29 |  |  | 
FC(F)(F)c1cc(NCc2cnc(-c3ccc(Oc4ccccc4)cc3)nc2)ccn1 [Compound 105, N-((2-(4-Phenoxyphenyl)pyrimidin-5-yl)methyl)-2-(trifluoromethyl)pyridin-4-amine] | > 10 µM |  | 6.60 to 7.29 | 6.00 to 6.60 | 31 to 60 min | 
FC(F)(F)c1cc(NCc2cnc(-c3ccc(Cl)cc3)s2)ccn1 [Compound 072, N-((2-(4-Chlorophenyl)thiazol-5-yl)methyl)-2-(trifluoromethyl)pyridin-4-amine] | > 25 µM | > 60 min | 6.60 to 7.29 | 6.00 to 6.60 | > 60 min | 4.30 to 4.60
FC(F)(F)c1cc(NCc2cn(-c3ccc(-n4ncc5ccccc54)cc3)nn2)ccn1 [Compound 046, N-((1-(4-(1H-indazol-1-yl)phenyl)-1H-1,2,3-triazol-4-yl)methyl)-2-(trifluoromethyl)pyridin-4-amine] | > 25 µM |  | 6.60 to 7.29 | 6.00 to 6.60 | 31 to 60 min | 
Oc1cc(NCc2cn(-c3ccc(Oc4ccccc4)cc3)nn2)cc(C(F)(F)F)n1 [Compound 050, 4-(((1-(4-Phenoxyphenyl)-1H-1,2,3-triazol-4-yl)methyl)amino)-6-(trifluoromethyl)pyridin-2-ol] | ≥ 100 µM |  | ≥ 7.30 | 5.30 to 6.00 | > 60 min | 
FC(F)(F)c1cc(SCc2cn(-c3ccc(Oc4ccccc4)cc3)nn2)ccn1 [Compound 054, 4-(((1-(4-phenoxyphenyl)-1H-1,2,3-triazol-4-yl)methyl)thio)-2-(trifluoromethyl)pyridine] |  | > 60 min | ≥ 7.30 | 6.00 to 6.60 |  | 
CC(C)Oc1ccc(-c2ncc(CNc3cc(C#N)nc(C(F)(F)F)c3)s2)cc1Cl [Compound 160, 4-(((2-(3-Chloro-4-isopropoxyphenyl)thiazol-5-yl)methyl)amino)-6-(trifluoromethyl)picolinonitrile] | > 10 µM |  | ≥ 7.30 | ≥ 6.60 | 31 to 60 min | 
O=C(c1ccccc1)c1ccc(-n2cc(CNc3ccnc(C(F)(F)F)c3)nn2)cc1 [Compound 004, Phenyl(4-(4-(((2-(trifluoromethyl)pyridin-4-yl)amino)methyl)-1H-1,2,3-triazol-1-yl)phenyl)methanone] | > 25 µM |  | ≥ 7.30 | 5.30 to 6.00 | > 60 min | 
Nc1cc(SCc2nc3cc(Cl)ccc3[nH]2)nc(C(F)(F)F)n1 [Compound 118, 6-(((5-Chloro-1H-benzo[d]imidazol-2-yl)methyl)thio)-2-(trifluoromethyl)pyrimidin-4-amine] |  | > 60 min | 6.60 to 7.29 | 5.30 to 6.00 |  | 
COc1ccc(-c2ncc(CNc3ccnc(C#N)c3)s2)cc1Cl [Compound 077, 4-(((2-(3-Chloro-4-methoxyphenyl)thiazol-5-yl)methyl)amino)picolinonitrile] | > 10 µM |  | ≥ 7.30 | ≥ 6.60 |  | 4.30 to 4.60
CC(C)Oc1ccc(-c2nc(CNc3ccnc(C(F)(F)F)c3)cs2)cc1Cl [Compound 082, N-((2-(3-Chloro-4-isopropoxyphenyl)thiazol-4-yl)methyl)-2-(trifluoromethyl)pyridin-4-amine] |  | > 60 min | ≥ 7.30 | ≥ 6.60 |  | 
CC(C)Oc1ccc(-c2nc(CNc3ccnc(C(F)(F)F)c3)cs2)cc1 [Compound 087, N-((2-(4-Isopropoxyphenyl)thiazol-4-yl)methyl)-2-(trifluoromethyl)pyridin-4-amine] | > 10 µM | > 60 min | ≥ 7.30 | ≥ 6.60 |  | 
CC(C)Oc1ncc(-c2ncc(CNc3ccnc(C(F)(F)F)c3)cn2)cc1Cl [Compound 164, N-((2-(5-chloro-6-isopropoxypyridin-3-yl)pyrimidin-5-yl)methyl)-2-(trifluoromethyl)pyridin-4-amine] | > 25 µM |  | ≥ 7.30 | 6.00 to 6.60 | > 60 min | 
CC(C)Oc1ccc(-c2ccc(CNc3ccnc(C(F)(F)F)c3)nc2)cc1Cl [Compound 165, N-((5-(3-chloro-4-isopropoxyphenyl)pyridin-2-yl)methyl)-2-(trifluoromethyl)pyridin-4-amine] | > 25 µM |  | ≥ 7.30 | 6.00 to 6.60 | > 60 min | 
Fc1ccccc1Oc1ccc(-n2cc(CNc3ccnc(C(F)(F)F)c3)nn2)cc1 [Compound 144, N-((1-(4-(2-fluorophenoxy)phenyl)-1H-1,2,3-triazol-4-yl)methyl)-2-(trifluoromethyl)pyridin-4-amine] | > 25 µM |  | ≥ 7.30 | ≥ 6.60 | 31 to 60 min | 
N#Cc1cc(NCc2cnc(-c3ccc(Oc4ccccc4)cc3)s2)ccn1 [Compound 076, 4-(((2-(4-Phenoxyphenyl)thiazol-5-yl)methyl)amino)picolinonitrile] |  | > 60 min | ≥ 7.30 | ≥ 6.60 | > 60 min | 
Nc1cc(SCc2nc3cc(Oc4ccccc4)ccc3[nH]2)nc(C(F)(F)F)n1 [Compound 125, 6-(((5-Phenoxy-1H-benzo[d]imidazol-2-yl)methyl)thio)-2-(trifluoromethyl)pyrimidin-4-amine] | > 25 µM | > 60 min | ≥ 7.30 | 6.00 to 6.60 |  | 

From patent publication US11883387B2, “PqsR inverse agonists” (HELMHOLTZ-ZENTRUM FÜR INFEKTIONSFORSCHUNG GMBH, priority 2018, dated 2024)
